In PMC9192638, “Compact IF2 allows initiator tRNA accommodation into the P site and gates the ribosome to elongation” (Nature Communications, 2022):

B1: ribosomal protein uL11 (natural protein, UniProt Q9HWC5 1-143, looked up)
chain: MAKKIQAYIKLQVKAGQANPSPPVGPALGQHGVNIMEFCKAFNAKTQGQEPGLPTPVIITVYSDRSFTFETKSTPAAVLLKKAAGITSGSARPNSQKVGTVTRAQLEEIAKTKQADLTAADLDAAVRTIAGSARSMGLNVEGV
notes: 50 S ribosomal protein uL11, Pseudomonas aeruginosa PAO1, as part of the 70 S ribosome; Stood in the assay as a subunit of the whole 70 S ribosome with mRNA and fMet-tRNA; also called uL11-NTD; source: endogenous, in 70 S ribosomes purified from P. aeruginosa PAO1 (sucrose cushion, sucrose density gradients)
B2: ribosomal protein uL16 (natural protein, UniProt Q9HWE2 1-137, looked up)
chain: MLQPKRTKFRKQMTGHNRGLAHRGSKVSFGEYALKATSRGRLTARQIESARRALTRHVKRGGKIWIRVFPDKPVTKKPLEVRMGKGKGGVEYWVAQIQPGKVLYEIEGVSEELAREAFALAAAKLPLATSFVKRTVM
notes: 50 S ribosomal protein uL16, Pseudomonas aeruginosa PAO1, as part of the 70 S ribosome; Stood in the assay as a subunit of the whole 70 S ribosome with mRNA and fMet-tRNA; source: endogenous, in 70 S ribosomes purified from P. aeruginosa PAO1 (sucrose cushion, sucrose density gradients)

How the values were obtained:
[1] = target: T1, IF2 (initiation factor 2) (Pseudomonas aeruginosa, UniProt Q9HV55); assay: cryo-EM structure; type: binding; conditions: pH 7.6, 10 mM MgCl2
T1 construct: gene infB; full-length; N-terminal 6xHis-SMT3 tag removed by Ulp1; expressed in E. coli BL21(DE3) Star; compact model residues 337-835
T1 sequence (Q9HV55 whole entry, the tested form may be a part): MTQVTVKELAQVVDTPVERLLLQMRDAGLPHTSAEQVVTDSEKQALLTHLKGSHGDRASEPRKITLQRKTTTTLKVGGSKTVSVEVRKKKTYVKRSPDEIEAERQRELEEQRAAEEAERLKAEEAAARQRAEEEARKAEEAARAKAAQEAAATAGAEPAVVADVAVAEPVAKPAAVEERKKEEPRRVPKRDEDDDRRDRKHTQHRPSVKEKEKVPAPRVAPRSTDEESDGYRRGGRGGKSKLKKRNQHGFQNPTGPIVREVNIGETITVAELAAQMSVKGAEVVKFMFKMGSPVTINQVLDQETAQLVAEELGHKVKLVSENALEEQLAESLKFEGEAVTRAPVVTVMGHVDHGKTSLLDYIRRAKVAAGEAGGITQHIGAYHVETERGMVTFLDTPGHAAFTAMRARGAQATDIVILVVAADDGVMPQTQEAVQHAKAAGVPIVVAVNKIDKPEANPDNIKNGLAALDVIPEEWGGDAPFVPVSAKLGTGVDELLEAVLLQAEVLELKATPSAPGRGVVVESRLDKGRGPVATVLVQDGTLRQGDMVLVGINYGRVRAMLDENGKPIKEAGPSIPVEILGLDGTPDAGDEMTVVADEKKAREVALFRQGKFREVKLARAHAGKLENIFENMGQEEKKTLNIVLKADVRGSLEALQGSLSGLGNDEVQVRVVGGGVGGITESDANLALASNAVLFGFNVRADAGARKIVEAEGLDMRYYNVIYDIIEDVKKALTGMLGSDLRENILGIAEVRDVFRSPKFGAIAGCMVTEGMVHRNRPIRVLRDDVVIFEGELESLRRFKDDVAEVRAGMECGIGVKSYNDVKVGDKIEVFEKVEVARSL

[2] = target: T2, initiation factor 2 (IF2) from Pseudomonas aeruginosa (Pseudomonas aeruginosa PAO1, UniProt Q9HV55 1-840); assay: cryo-EM structure; rotated 70S-IC with extended IF2-GDPCP (structures II-A and II-B); 2 uM 70 S ribosome, 25 uM mRNA, 10 uM fMet-tRNA, 30 uM IF2, 2 mM GDPCP; 10 mM Hepes 7.6, 60 mM NH4Cl, 15 mM KCl, 10 mM MgCl2; conditions: both partners purified
T2 construct: Translation initiation factor IF2, Pseudomonas aeruginosa PAO1; residues modelled in the maps: 248-332 (N2 sub-domain region, extended IF2) and 337-835 (compact IF2); Co-purifies with GDP; GDPCP was added to the complex, so the sample held IF2-GDP (compact) and IF2-GDPCP (extended); also called PaeIF2; IF2-GDP; source: E. coli BL21 (DE3) Star, purified (HisTrap, Ulp1 cleavage, reverse HisTrap, …)
T2 sequence (Q9HV55 whole entry): as the sequence (Q9HV55 whole entry, the tested form may be a part) above

| Molecule | binding result [2] | further results |
| --- | --- | --- |
| Nc1nc2c(ncn2[C@@H]2O[C@H](COP(=O)(O)OP(=O)(O)CP(=O)(O)O)[C@@H](O)[C@H]2O)c(=O)[nH]1 [GDPCP, β,γ-methyleneguanosine 5’-triphosphate] | – | cryo-EM structure ([1]; extended IF2 on rotated 70S ribosome initiation complex with mRNA and fMet-tRNA, 2 mM GDPCP added, G-domain nucleotide site with Mg2+): well-defined density for extended IF2 and GDPCP in the G-domain |
| Nc1nc2c(ncn2[C@@H]2O[C@H](COP(=O)(O)OP(=O)(O)O)[C@@H](O)[C@H]2O)c(=O)[nH]1 [GDP] | – | cryo-EM structure ([1]; compact IF2 on non-rotated 70S ribosome initiation complex with mRNA and fMet-tRNA, GDP co-purified with IF2, G-domain nucleotide site): visualizes the GDP nucleotide bound in the G-domain |
| B1 | binds | – |
| B2 | binds | – |
